In article PMC12196810, “A Dual Bioassay for Evaluation of Embryotoxicity and Acute Toxicity of Common Solvents and Surfactants in Artemia salina” (Toxics, 2025):
Entries after “also recorded” stand apart in the source; their conditions may differ.

Key:
Artemia salina nauplii = test: Brine shrimp lethality test; details: for toxicity in the lethality test, in words: 24 and 48 h, 0.05–5% (w/v); for LC50: nauplii, 0.05–5.0% (w/v) tested; for LC50 values: both timepoints (24 and 48 h), summary statement
Experimental: Artemia salina cysts were hatched in beakers filled with artificial sea water at a salinity of 35 g/L, under continuous aeration, and at a temperature of 25 ± 1 °C for 48 h and a light/dark cycle of 16/8 h. The constant conditions were maintained using a plant growth chamber (Sanyo MLR-351 H, San Diego, CA, USA). After hatching, the Artemia nauplii were separated and brought in aerated fresh artificial sea water. A number of ten nauplii were added in tissue culture plates containing 24 wells (Greiner Bio-One, Kremsmünster, Austria), along with the tested solutions [29, 30]. […] Artificial sea water was used as negative control and sodium lauryl sulfate as positive control. The artificial seawater was prepared according to the instructions provided by the Artemia egg manufacturer, using the supplied salts dissolved in distilled water. A total of 5 L was prepared, aerated, and stored at 4 °C, in dark for no more than two weeks. Before use, the artificial seawater was aerated again. […] The lethality values were calculated and were plotted against the logarithm of concentrations, using the least square fit method to obtain lethality curves. […] The photographs were taken using an ODC 825 Microscope Digital Camera (KERN, Balingen, Germany), with a resolution of 5.1 MP and a 1/2.5″ Aptina CMOS sensor, and processed using Microscope-VIS software 2.0 (KERN Balingen, Germany).

Artemia salina cysts [1] = test: Hatching and development of nauplii (stage groups A–D); type: in vivo; details: for individuals reaching Group D (Instar I–III): 48 h
Experimental: Each sample was monitored using a stereo-microscope (STMLAB, Monza, Italy) and a bright-field microscope (Euromex, Bscope series, Groningen, The Netherlands) at both moments of determination. After 48 h, a mixture of ethanol and acetic acid in the ratio of 3:1 (v/v) was added to each sample to ensure the preservation for further observations. Depending on the development stage of each sample, the hatching process was divided into four main groups (A–D), and expressed as percents (%). The first group were the unhatched eggs (group A) that remain unchanged between the rehydration operation and the moment of observation; in the second group were the eggs with a broken shell (group B) with evident cracks and modified shape; the third category corresponds to the hatching moment, and it was noted as stage 0 (group C), when the nauplii are pear-shaped or umbrella-shaped and immobile; the fourth stage corresponds to larval stages that comprise the naupliar development stages Instar I–III (group D). All samples were compared to the untreated control to identify non-disruptive concentrations and solvent compatibility for future hatching assays.

Artemia salina cysts [2] = test: Hatching inhibition test; type: in vivo; details: for IC50 (hatching inhibition): cysts, 0.1–2.5% (w/v) tested; for inhibition of hatching, in words: 0.1–2.5%
Experimental: SLS was used as positive control and artificial sea water as negative control. The determination was performed according to the protocols described in the literature, with some modifications.
Each sample was performed in duplicate, and artificial sea water was used as control. The hatching process was monitored at 24 and 48 h, and stages 0 and Instar I–III were considered for the quantification. Randomization and blinding were not applied in the assays, as the evaluation of developmental stages is considered objective and unlikely to be influenced by observer bias. The inhibition of the hatching (HI) process was calculated versus the control using the formula presented by Rotini et al.. HI50 was calculated by interpolating on the curves plotted, using the logarithm of concentrations and the hatching inhibition (%) with the least square fit method.

[3] = all concentrations (0.1–2.5%), 24 and 48 h
[4] = 48 h, all concentrations (0.05–5%)

## CCN(CC)C(=O)c1cccnc1 [DENA, N,N-diethylnicotinamide]
Artemia salina nauplii
  toxicity in the lethality test, in words: highly toxic
Artemia salina nauplii; 24 h exposure
  LC50: 0.22%
Artemia salina nauplii; 48 h, at 0.1%
  lethality: 45%
Artemia salina nauplii; 48 h, concentrations ≥ 1%
  lethality: 100%
Artemia salina nauplii; 48 h exposure
  LC50: 0.05%
Artemia salina cysts [1]; at 2.5%
  effect on development, in words: development was arrested in Groups A and B
Artemia salina cysts [2]; 24 h
  IC50 (hatching inhibition): 0.97%
Artemia salina cysts [2]; 48 h
  IC50 (hatching inhibition): 1.10%
Artemia salina cysts [2]; at 2.5%
  inhibition of hatching: full inhibition

## CN(C)C(=O)c1ccccc1 [DMBA, N,N-dimethylbenzamide]
Artemia salina nauplii
  toxicity in the lethality test, in words: highly toxic
  LC50 values: ≤ 1%
Artemia salina nauplii; 24 h, down to 0.5%
  lethality: 100%
Artemia salina nauplii; 24 h exposure
  LC50: 0.13%
Artemia salina nauplii; 48 h, at 0.1%
  lethality: 75%
Artemia salina nauplii; 48 h, concentrations ≥ 1%
  lethality: 100%
Artemia salina nauplii; 48 h exposure
  LC50: 0.09%
Artemia salina cysts [1]; from 0.5% upward
  effect on development, in words: no significant presence in Group D
Artemia salina cysts [2]; 24 h
  IC50 (hatching inhibition): 0.27%
Artemia salina cysts [2]; 24 h, high concentrations
  inhibition of hatching: exceeding 90%
Artemia salina cysts [2]; 48 h
  IC50 (hatching inhibition): 19.23%

## CN(C)C=O [DMF, dimethylformamide]
Artemia salina nauplii
  toxicity in the lethality test, in words: moderate toxicity
Artemia salina nauplii; 24 h exposure
  LC50: 1.24%
Artemia salina nauplii; 48 h, at 1%
  lethality: up to 80%
Artemia salina nauplii; 48 h exposure
  LC50: 1.06%

## C[S+](C)[O-] [DMSO, dimethyl sulfoxide]
Artemia salina nauplii
  toxicity in the lethality test, in words: moderate-to-low toxicity; also recorded: very low toxicity
Artemia salina nauplii; listed as dimethyl sulfoxide
  toxicity in the lethality test, in words: low toxicity
Artemia salina nauplii; 24 h, at 0.1%
  lethality (maximum): 25%
Artemia salina nauplii; 48 h, at 0.5%
  lethality (peak): 45%
Artemia salina cysts [1]; 0.1–2.5%, 24 and 48 h
  effect on development, in words: very low developmental toxicity
Artemia salina cysts [1]; at 2.5%
  embryos developed fully (Group D): over 80%
Artemia salina cysts [2]; 24 and 48 h
  inhibition of hatching, in words: very low or no inhibition; also recorded: minimal or no inhibition

## CN(C)C(N)=O [DMU, N,N-dimethylurea]
Artemia salina nauplii
  toxicity in the lethality test, in words: moderate toxicity
Artemia salina nauplii; 24 h exposure
  LC50: 0.94%
Artemia salina nauplii; 48 h, concentrations ≥ 1%
  lethality: 100%
Artemia salina nauplii; 48 h exposure
  LC50: 0.08%
Artemia salina cysts [1]; at 0.1%
  individuals reaching Group D (Instar I–III): over 80%
Artemia salina cysts [2]; [3]
  inhibition of hatching: under 50%

## OCC(O)CO [GLY, glycerol]
Artemia salina nauplii
  toxicity in the lethality test, in words: very low toxicity
Artemia salina nauplii; listed as Glycerin
  toxicity in the lethality test, in words: low toxicity
Artemia salina nauplii; [4]
  lethality: up to 40%
Artemia salina cysts [1]; 0.1–2.5%, 24 and 48 h
  effect on development, in words: negligible impact on development
Artemia salina cysts [2]; 24 and 48 h
  inhibition of hatching, in words: very low or no inhibition; also recorded: minimal or no inhibition

## CC(O)CO (stereo not shown) [PDO, propylene glycol]
Artemia salina nauplii
  toxicity in the lethality test, in words: very low toxicity
Artemia salina nauplii; listed as propylene glycol
  toxicity in the lethality test, in words: low toxicity
Artemia salina nauplii; 48 h, highest concentration (5%)
  lethality: 95%
Artemia salina nauplii; 48 h exposure
  LC50: 1.64%
Artemia salina cysts [1]; 0.1–2.5%, 24 and 48 h
  effect on development, in words: minimal interference
Artemia salina cysts [2]; 24 and 48 h
  inhibition of hatching, in words: very low or no inhibition; also recorded: minimal or no inhibition

## Cc1ccc(S(=O)(=O)O)cc1.[Na] [PTS, sodium p-toluenesulfonate]
Artemia salina nauplii
  toxicity in the lethality test, in words: highly toxic
  LC50 values: ≤ 1%
Artemia salina nauplii; 24 h, highest concentration (5%)
  lethality: 100%
Artemia salina nauplii; 48 h, at 0.1%
  lethality: 90%
Artemia salina nauplii; 48 h, concentrations ≥ 1%
  lethality: 100%
Artemia salina cysts [1]; at 1%
  individuals reaching Group D (Instar I–III): over 60%
Artemia salina cysts [1]; at 2.5%
  effect on development, in words: Groups A and B became dominant
Artemia salina cysts [2]; 24 h
  IC50 (hatching inhibition): ~2.49%
Artemia salina cysts [2]; at 2.5%
  inhibition of hatching: strong suppression

## O=S(=O)([O-])c1cccc(S(=O)(=O)[O-])c1.[Na+].[Na+] [SBDS, sodium benzene-1,3-disulfonate]
Artemia salina cysts [1]; 0.1–2.5%, 24 and 48 h
  effect on development, in words: low impact on embryonic development
Artemia salina cysts [2]; [3]
  inhibition of hatching: under 50%

## O=S(=O)([O-])c1ccccc1.[Na+] [SBS, sodium benzenesulfonate]
Artemia salina nauplii
  toxicity in the lethality test, in words: moderate toxicity
Artemia salina nauplii; 24 h exposure
  LC50: 0.93%
Artemia salina nauplii; 48 h, concentrations ≥ 1%
  lethality: 100%
Artemia salina nauplii; 48 h exposure
  LC50: 0.21%
Artemia salina cysts [1]; 0.1–2.5%, 24 and 48 h
  effect on development, in words: moderate developmental delay
Artemia salina cysts [2]; 24 and 48 h
  inhibition of hatching, in words: only moderate suppression

## CCCCCCCCCCCCOS(=O)(=O)[O-].[Na+] [SLS, sodium lauryl sulfate, reference compound]
Artemia salina nauplii
  toxicity in the lethality test, in words: highly toxic; also recorded: such high mortality at all tested concentrations
Artemia salina nauplii; 24 h, across all concentrations (0.05–5%)
  lethality: 100%
Artemia salina nauplii; [4]
  lethality: 100%
Artemia salina cysts [1]; 0.1–2.5%, 24 and 48 h
  effect on development, in words: complete developmental arrest
Artemia salina cysts [2]; 24 and 48 h
  inhibition of hatching, in words: complete or near complete inhibition

## NC(N)=O [Urea, urea]
Artemia salina nauplii
  toxicity in the lethality test, in words: moderate toxicity
Artemia salina nauplii; 24 h exposure
  LC50: 1.11%
Artemia salina nauplii; 48 h exposure
  LC50: 0.74%
Artemia salina cysts [1]; at 2.5%
  effect on development, in words: some developmental delay
Artemia salina cysts [2]; [3]
  inhibition of hatching: under 50%

## Tween 20
Artemia salina nauplii
  toxicity in the lethality test, in words: such high mortality at all tested concentrations

## Tween 80
Artemia salina nauplii
  toxicity in the lethality test, in words: such high mortality at all tested concentrations

## sodium xylenesulfonate [SXS]
Artemia salina nauplii; 24 h exposure
  LC50: 1.01%
Artemia salina nauplii; 48 h, concentrations ≥ 1%
  lethality: 100%
Artemia salina nauplii; 48 h exposure
  LC50: 0.79%
Artemia salina nauplii
  LC50 values: ≤ 1%
Artemia salina cysts [1]; at 2.5%
  effect on development, in words: no development beyond Group B occurred
Artemia salina cysts [2]; 24 h
  IC50 (hatching inhibition): 0.28%
Artemia salina cysts [2]; 48 h
  IC50 (hatching inhibition): 0.41%
Artemia salina cysts [2]; at 2.5%
  inhibition of hatching: 100%
